Reference: the NIST ThermoML archive (doi:10.1021/acs.jced.9b00237)
Numbers after ± are expanded uncertainties.

Test: xn = mol fraction of the nth substance listed
Settings: 100 kPa, Liquid; for viscosity: Concentric cylinders viscometry; for mass density: Vibrating tube method

C[N+](C)(C)CCO.[Cl-] [choline chloride] + Oc1ccccc1
viscosity (293.15 K, x1 = 0.2): 39 ± 1.7 mPa·s
viscosity (293.15 K, x1 = 0.25): 58.16 ± 1.9 mPa·s
mass density (293.15 K, x1 = 0.2): 1093 ± 2 kg/m3
mass density (293.15 K, x1 = 0.25): 1096 ± 2 kg/m3
viscosity (303.15 K, x1 = 0.2): 24.67 ± 0.88 mPa·s
viscosity (303.15 K, x1 = 0.25): 35.76 ± 1.4 mPa·s
mass density (303.15 K, x1 = 0.2): 1087 ± 2 kg/m3
mass density (303.15 K, x1 = 0.25): 1089 ± 2 kg/m3
viscosity (313.15 K, x1 = 0.2): 16.69 ± 0.58 mPa·s
viscosity (313.15 K, x1 = 0.25): 23.53 ± 0.84 mPa·s
mass density (313.15 K, x1 = 0.2): 1080 ± 2 kg/m3
mass density (313.15 K, x1 = 0.25): 1083 ± 2 kg/m3
viscosity (323.15 K, x1 = 0.2): 11.83 ± 0.4 mPa·s
viscosity (323.15 K, x1 = 0.25): 16.42 ± 0.56 mPa·s
mass density (323.15 K, x1 = 0.2): 1073 ± 2 kg/m3
mass density (323.15 K, x1 = 0.25): 1077 ± 2 kg/m3
viscosity (333.15 K, x1 = 0.2): 8.825 ± 0.32 mPa·s
viscosity (333.15 K, x1 = 0.25): 12.02 ± 0.36 mPa·s
mass density (333.15 K, x1 = 0.2): 1067 ± 2 kg/m3
mass density (333.15 K, x1 = 0.25): 1071 ± 2 kg/m3
